From ChEMBL document CHEMBL1154502, “Small, non-peptide C5a receptor antagonists: part 2” (Bioorg Med Chem Lett, 2008)

Key:
[1] = molecular target: T1, C5a anaphylatoxin chemotactic receptor 1 (Homo sapiens, UniProt P21730); assay: Displacement of [125I]C5a from C5a receptor in cAMP differentiated human U937 cells by filtration assay; assay type: cell-based, U-937
T1 sequence (P21730 whole entry): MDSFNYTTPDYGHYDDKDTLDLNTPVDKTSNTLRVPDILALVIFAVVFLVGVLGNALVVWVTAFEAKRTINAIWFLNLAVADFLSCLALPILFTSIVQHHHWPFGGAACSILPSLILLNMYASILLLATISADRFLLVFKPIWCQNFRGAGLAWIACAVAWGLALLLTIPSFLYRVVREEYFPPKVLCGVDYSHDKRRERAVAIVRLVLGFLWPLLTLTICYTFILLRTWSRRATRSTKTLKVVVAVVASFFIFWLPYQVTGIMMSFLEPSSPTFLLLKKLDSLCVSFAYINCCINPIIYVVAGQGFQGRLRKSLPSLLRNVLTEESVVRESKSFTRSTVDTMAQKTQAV

[2] = Octanol-neutral buffer distribution coefficient, log D at pH 7.4; assay type: physicochemical
[3] = Lipophilicity, log D of the compound; assay type: physicochemical; conditions: octanol/water
[4] = molecular target: T2, C5a anaphylatoxin chemotactic receptor 1 (Homo sapiens) (UniProt P21730); assay: Binding affinity to C5a receptor assessed as total drug level required for translation of C5a-induced CD11b upregulation in heparinised human whole blood preincubated 1 min prior to C5a challenge by dose-response curve analysis; assay type: tissue-based
T2 sequence (whole entry): T1 sequence (P21730 whole entry)

[5] = Protein binding in human plasma; assay type: ADME, cell-free; conditions: read-out: PPB (converted)
[6] = molecular target: T2, C5a anaphylatoxin chemotactic receptor 1 (Homo sapiens); assay: Antagonist activity at C5a receptor assessed as total drug level required to induce 10-fold shift in C5a-stimulated CD11b upregulation in heparinised human whole blood preincubated 1 min prior to C5a challenge by dose-response curve analysis; assay type: functional, tissue-based
[7] = molecular target: T2, C5a anaphylatoxin chemotactic receptor 1 (Homo sapiens); assay: Antagonist activity at C5a receptor assessed as free drug level required to induce 10-fold shift in C5a-stimulated CD11b upregulation in heparinised human whole blood preincubated 1 min prior to C5a challenge by dose-response curve analysis; assay type: functional, tissue-based
[8] = molecular target: T1, C5a anaphylatoxin chemotactic receptor 1; assay: Antagonist activity at C5a receptor assessed as inhibition of C5a-induced elastase release in human neutrophils during degranulation preincubated 5 mins prior to C5a challenge using p-nitroanilide as substrate; assay type: functional
[9] = molecular target: T2, C5a anaphylatoxin chemotactic receptor 1 (Homo sapiens); assay: Binding affinity to C5a receptor assessed as free drug level required for translation of C5a-induced CD11b upregulation in heparinised human whole blood preincubated 1 min prior to C5a challenge by dose-response curve analysis; assay type: tissue-based
[10] = Dissociation constant, pKa of the compound; assay type: physicochemical

Row | SMILES | IC50 [1] | logD [2] | IC50 [8] | also measured
1 | Clc1ccc2nc(-c3csc4ccccc34)n(C3CCC4(CC3)OCCO4)c2c1Cl | 0.79 µM | > 5 | – | –
2 | O=C(Nc1ccc(F)cc1F)N1CCC(N(CCc2ccc(Cl)cc2)C(=O)c2csc3ccccc23)CC1 | – | – | – | logD [3]: < 4
3 | CC(=O)C(Cc1ccc(Cl)cc1)N(C(=O)c1csc2ccccc12)C1CCC2(CC1)OCCO2 (racemic) | 0.045 µM | – | – | –
4 | CCc1ccccc1C(=O)N(C1CCC2(CC1)OCCO2)C(Cc1ccc(Cl)cc1)CN(C)C (racemic) | 0.027 µM | > 5 | 0.025 µM | Activity [4]: 178 nM; fraction unbound [5]: 0.004; Activity [6]: 4.8 µM; Activity [7]: 17 nM; Activity [9]: 0.63 nM; pKa [10]: 7.4
5 | Cc1nc(-c2csc3ccccc23)n(C2CCC3(CC2)OCCO3)c1Cc1ccc(Cl)cc1 | 0.09 µM | 4.6 | – | –
6 | c1ccc2c(-c3ncc(CC4CCCCC4)n3C3CCC4(CC3)OCCO4)csc2c1 | 0.047 µM | – | 0.85 µM | –
7 | CCc1ccccc1C(=O)N(C1CCC2(CC1)OCCO2)C(Cc1ccc(Cl)cc1)c1noc(C)n1 (racemic) | 0.008 µM | > 5 | 0.04 µM | –
8 | COCC(Cc1ccc(Cl)cc1)N(C(=O)c1csc2ccccc12)C1CCC2(CC1)OCCO2 (racemic) | 0.012 µM | – | 0.027 µM | –
9 | CN(C)CC(Cc1ccc(Cl)cc1)N(C(=O)c1cccc2ccccc12)C1CCC2(CC1)OCCO2 (racemic) | 0.013 µM | 4.6 | 0.022 µM | –
10 | CCc1ccccc1C(=O)N(C1CCC2(CC1)OCCO2)[C@H](CCN1CCOCC1)Cc1ccc(Cl)cc1 | 0.2 µM | 3.4 | – | Activity [4]: 22 nM; fraction unbound [5]: 0.027; Activity [6]: 4.4 µM; Activity [7]: 119 nM; Activity [9]: 0.6 nM
11 | CCc1ccccc1C(=O)N(C1CCC2(CC1)OCCO2)[C@H](CCN(C)C)Cc1ccc(Cl)cc1 | > 1 µM | – | – | –
12 | COc1cccc(-c2ncc(Cc3ccc(Cl)cc3)n2C2CCC3(CC2)OCCO3)c1 | > 1 µM | 4 | – | –
13 | Clc1cccc2nc(-c3csc4ccccc34)n(C3CCC4(CC3)OCCO4)c12 | 0.325 µM | – | – | –
14 | Clc1ccc(Cc2nnc(-c3cccc4ccccc34)n2C2CCC3(CC2)OCCO3)cc1 | > 1 µM | – | – | –
15 | CCOC(=O)C(Cc1ccc(Cl)cc1)N(C(=O)c1cccc2ccccc12)C1CCC2(CC1)OCCO2 (racemic) | 0.003 µM | – | 0.032 µM | –
16 | Clc1ccc(CC2CN=C(c3csc4ccccc34)N2C2CCC3(CC2)OCCO3)cc1 (centres undefined) | > 1 µM | – | – | –
17 | Clc1ccc(Cc2cnc(-c3csc4ccccc34)n2C2CCC3(CC2)OCCO3)cc1 | 0.5 µM | > 4 | – | –
18 | CCc1ccccc1C(=O)N(C1CCC2(CC1)OCCO2)C(Cc1ccc(Cl)cc1)C(=O)O (racemic) | 0.35 µM | – | – | –
19 | Clc1ccc(Cc2cnc(-c3cccc4ccccc34)n2C2CCC3(CC2)OCCO3)cc1 | 0.09 µM | – | 0.877 µM | –
20 | CN(C)Cc1ccccc1C(=O)N(CCc1ccc(Cl)cc1)C1CCC2(CC1)OCCO2 | 0.5 µM | 3.3 | – | fraction unbound [5]: 0.004; Activity [6]: > 10 µM; Activity [7]: > 40 nM; pKa [10]: 8.4
21 | O=C(c1csc2ccccc12)N(C1CCC2(CC1)OCCO2)C(CO)Cc1ccc(Cl)cc1 (racemic) | > 1 µM | – | – | –
22 | COC(=O)C(Cc1ccc(Cl)cc1)N(C(=O)c1csc2ccccc12)C1CCC2(CC1)OCCO2 (racemic) | 0.015 µM | – | 0.172 µM | –
